Data reported in patent US20140155362A1, “BHQ-CONJUGATES, AND RELATED COMPOUNDS, METHODS OF MAKING THE SAME, AND METHODS OF USE THEREOF” (priority 2011, published 2014).

Tests used:
[1] = Determination of two-photon action cross-sections (δu) at 740 nm; type: physicochemical
Protocol: Determination of Two-photon Action Cross-Sections (δu).
A portion of BHQ-O-5HT was dissolved in KMOPS buffer and the concentration of the solution was found using UV-Vis absorption in conjunction with Beer's law. Aliquots (25 μL) of this solution were placed in a microcuvette (10×1×1 mm illuminated dimensions) and irradiated with a fs-pulsed and mode-locked Ti:Sapphire laser (Chameleon Ultra II, Coherent) with 740-nm light at an average power of 300 mW. Three samples were irradiated for each of the following time periods: 0, 5, 10, 20, and 40 min. The samples were compiled and analyzed by HPLC. A solution of fluorescein at pH 9.0 was prepared to act as a standard for BHQ-O-5HT because of its well-characterized 2PE cross-section (δaF=30 GM at 740 nm) and quantum yield (QF2=0.9). UV-V is absorption spectroscopy was used to correlate absorption at 488 nm to precise concentration. Aliquots (25 μL) of fluorescein solution were placed in the microcuvette and irradiated by the laser under the same conditions used for the BHQ-O-5HT solution. The fluorescence output of the solution was measured with a radiometer before and after the BHQ-O-5HT samples were irradiated and the two values were averaged. The following equation was used to calculate the two-photon action cross-section for BHQ-O-5HT:
where Np is the number of product molecules formed per second (determined by HPLC), φ is the collection efficiency of the detector (SED033 on an IL-1700, International Light) used to measure the fluorescence of fluorescein passing through the cuvette window and through a 535/545 nm bandpass filter at a right angle to the laser's beam, CF is the concentration of fluorescein, <F(t)> is the time averaged fluorescent photon flux (photons/s) of fluorescein and CS is the initial concentration of the caged compound. The measurements were compiled and the two-photon action cross-section for BHQ-O-5HT was determined to be 0.50 GM. The experiment was repeated for BHQ-N-5HT, and the two-photon action cross-section was determined to be 0.42 GM.
Determination of Two photon Action Cross-Sections (δu).
A portion of BHQ-VAA was dissolved in KMOPS buffer and the concentration of the solution was found using UV-Vis absorption in conjunction with Beer's law. Aliquots (25 μL) of this solution were placed in a microcuvette (10×1×1 mm illuminated dimensions) and irradiated with a fs-pulsed and mode-locked Ti: Sapphire laser (Chameleon Ultra II, Coherent) with 740-nm light at an average power of 300 mW. Three samples were irradiated for each of the following time periods: 0, 5, 10, 20, and 40 min. The samples were compiled and analyzed by HPLC. […] The fluorescence output of the solution was measured with a radiometer before and after the BHQ-VAA samples were irradiated and the two values were averaged. […]

[2] = test system: ex vivo zebrafish brain (optic tectum); experiment: Electrophysiological recording of PTZ-induced seizure activity in ex vivo zebrafish brain; conditions: PTZ 15 mM-induced seizure
Protocol: BHQ-O-5HT Mediates the Light Activation of 5HT in an Ex Vivo Zebrafish Brain Preparation (FIG. 1.1).
A microelectrode inserted into the optic tectum was used to record seizure activity induced by application of pentalenetetrazole (PTZ, 15 mM). The ictal and interictal spikes can be observed at regular intervals. After 1040 s, BHQ-O-5HT (1 mM) was added. No change in the amplitude of the ictal spikes was observed. At 1640 s, the preparation was exposed to a brief (˜1 ms) flash of 365-nm light. […] Since 5HT is an inhibitor of seizures,^1,2 this is the expected result.
Procedure for electrophysiological recording in ex vivo zebrafish brain:
An adult zebrafish brain was obtained by dissection in oxygenated artificial cerebrospinal fluid (ACSF).* A sharp glass pipet microelectrode (15 MΩ impedance), loaded with ACSF, was inserted into the optic tectum. A chloride-coated silver wire (0.010 in., A-M Systems, Inc. Sequim, Wash.) reference (15 MΩ impedance) was placed contra-laterally, adjacent to the brain. Neuronal activity was recorded using an MDA-41 AC Differential Amplifier (Bak Electronics, Mount Airy, Md.) and a Tektronix DPO 3012 Digital Phosphor Oscilloscope (Beaverton, Oreg.) using MATLAB. Baseline activity was recorded for 5 min followed by introduction of PTZ (15 mM). […] The response was recorded for 30 min.

## COc1cc(CNC(C)=O)ccc1OCc1ccc2ccc(O)c(Br)c2n1 [BHQ-VAA]
[1]; Table 2.1, KMOPS
  δu (two-photon uncaging action cross-section): 0.61 GM

## O=C(NCCc1c[nH]c2ccc(O)cc12)OCc1ccc2ccc(O)c(Br)c2n1 [BHQ-N-5HT]
[1]; Table 1.1, KMOPS
  δu (two-photon uncaging action cross-section): 0.42 GM

## Oc1ccc2ccc(COc3ccccc3)nc2c1Br [BHQ-OPh]
[1]; pH 7.2 KMOPS
  2-photon photolysis uncaging action cross section δu: 0.56 GM

## NCCc1c[nH]c2ccc(OCc3ccc4ccc(O)c(Br)c4n3)cc12 [BHQ-O-5HT]
[1]; Table 1.1, KMOPS
  δu (two-photon uncaging action cross-section): 0.50 GM
[2]; compound 1 mM added, no irradiation
  change in amplitude of ictal spikes, before light: No change
[2]; compound 1 mM, brief (~1 ms) flash of 365-nm light
  change in amplitude of ictal spikes, after light flash: immediate reduction in the amplitude of the ictal spikes
